Test system: 966289-007-R4-J1-PDC complex spheroid viability
Experiment: Anticancer human tumor 966289-007-R4-J1-PDC patient-derived pancreatic adenocarcinoma cell line growth inhibition [GQUAD]
Settings: for IC50: curve of first compound; for viability, T/C: stronger effect = lower value
In short: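 Tumor cells were grown as complex spheroids with HUVEC endothelial cells and mesenchymal stem cells as stroma. G-quadruplex stabilizers were combined with targeted agents over half-log dilutions from near the clinical Cmax, or from 10 microM.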

[1] = second compound 0.0316 µM, first compound 0.0316 µM
[2] = second compound 0.0316 µM, first compound 0.1 µM
[3] = second compound 0.0316 µM, first compound 0.316 µM
[4] = second compound 0.0316 µM, first compound 1 µM
[5] = second compound 0.0316 µM, first compound 3.16 µM
[6] = second compound 0.0316 µM, first compound 10 µM
[7] = second compound 0.1 µM, first compound 0.0316 µM
[8] = second compound 0.1 µM, first compound 0.1 µM
[9] = second compound 0.1 µM, first compound 0.316 µM
[10] = second compound 0.1 µM, first compound 1 µM
[11] = second compound 0.1 µM, first compound 3.16 µM
[12] = second compound 0.1 µM, first compound 10 µM
[13] = second compound 0.316 µM, first compound 0.0316 µM
[14] = second compound 0.316 µM, first compound 0.1 µM
[15] = second compound 0.316 µM, first compound 0.316 µM
[16] = second compound 0.316 µM, first compound 1 µM
[17] = second compound 0.316 µM, first compound 3.16 µM
[18] = second compound 0.316 µM, first compound 10 µM
[19] = second compound 1 µM, first compound 0.0316 µM
[20] = second compound 1 µM, first compound 0.1 µM
[21] = second compound 1 µM, first compound 0.316 µM
[22] = second compound 1 µM, first compound 1 µM
[23] = second compound 1 µM, first compound 3.16 µM
[24] = second compound 1 µM, first compound 10 µM
[25] = second compound 3.16 µM, first compound 0.0316 µM
[26] = second compound 3.16 µM, first compound 0.1 µM
[27] = second compound 3.16 µM, first compound 0.316 µM
[28] = second compound 3.16 µM, first compound 1 µM
[29] = second compound 3.16 µM, first compound 3.16 µM
[30] = second compound 3.16 µM, first compound 10 µM
[31] = second compound 10 µM, first compound 0.0316 µM
[32] = second compound 10 µM, first compound 0.1 µM
[33] = second compound 10 µM, first compound 0.316 µM
[34] = second compound 10 µM, first compound 1 µM
[35] = second compound 10 µM, first compound 3.16 µM
[36] = second compound 10 µM, first compound 10 µM
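Further: spheroids exposed to the agents for seven days before readout.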
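Wherever viability, T/C is given: percent viability relative to DMSO vehicle control wells taken as 100%.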

CC1COCCN1c1cc(C2(S(C)(=N)=O)CC2)nc(-c2ccnc3[nH]ccc23)n1 (stereo unspecified) + Cc1[nH]c2ccc(F)cc2c1-c1nc2c3cccnc3c3ncccc3c2[nH]1 was tested, and the IC50 (second compound 0.0316 µM) was 2.5 µM, the IC50 (second compound 0.1 µM) was 3.03 µM and the IC50 (second compound 0.316 µM) was 3.13 µM. For the same molecule, the IC50 (second compound 1 µM) was 2.87 µM, the IC50 (second compound 3.16 µM) was 1.75 µM and the IC50 (second compound 10 µM) was 1.45 µM. The viability, T/C [1] was 104%, the viability, T/C [2] was 91.8% and the viability, T/C [3] was 109%. For the same molecule, the viability, T/C [4] was 90.9%, the viability, T/C [5] was 39.4% and the viability, T/C [6] was 7.57%. The viability, T/C [7] was 106%, the viability, T/C [8] was 104% and the viability, T/C [9] was 105%. For the same molecule, the viability, T/C [10] was 96.3%, the viability, T/C [11] was 48.2% and the viability, T/C [12] was 8.79%. For the same molecule, the viability, T/C [13] was 99.8%, the viability, T/C [14] was 100% and the viability, T/C [15] was 106%. It also gave a viability, T/C [16] of 101%, a viability, T/C [17] of 49.6% and a viability, T/C [18] of 6.54%. For the same molecule, the viability, T/C [19] was 99.2%, the viability, T/C [20] was 103% and the viability, T/C [21] was 108%. It also gave a viability, T/C [22] of 90.6%, a viability, T/C [23] of 46.4% and a viability, T/C [24] of 7.68%. It also gave a viability, T/C [25] of 101%, a viability, T/C [26] of 106% and a viability, T/C [27] of 107%. The viability, T/C [28] was 77.5%, the viability, T/C [29] was 20.6% and the viability, T/C [30] was 5.11%. For the same molecule, the viability, T/C [31] was 101%, the viability, T/C [32] was 100% and the viability, T/C [33] was 97.7%. The viability, T/C [34] was 69.1%, the viability, T/C [35] was 9.9% and the viability, T/C [36] was 3.37%.
COc1ccc([C@@H](O)c2cc(-c3ncnc4cc(N5CCOCC5)ccc34)c(F)cc2Cl)nn1 + Cc1[nH]c2ccc(F)cc2c1-c1nc2c3cccnc3c3ncccc3c2[nH]1 gave an IC50 (second compound 0.0316 µM) greater than 10 µM, an IC50 (second compound 0.1 µM) greater than 10 µM and an IC50 (second compound 0.316 µM) greater than 10 µM. It also gave an IC50 (second compound 1 µM) greater than 10 µM, an IC50 (second compound 3.16 µM) greater than 10 µM and an IC50 (second compound 10 µM) greater than 10 µM. The viability, T/C [1] was 106%, the viability, T/C [2] was 94.7% and the viability, T/C [3] was 108%. The viability, T/C [4] was 104%, the viability, T/C [5] was 112% and the viability, T/C [6] was 85.6%. The viability, T/C [7] was 107%, the viability, T/C [8] was 101% and the viability, T/C [9] was 106%. It also gave a viability, T/C [10] of 104%, a viability, T/C [11] of 111% and a viability, T/C [12] of 87.8%. The viability, T/C [13] was 94.5%, the viability, T/C [14] was 102% and the viability, T/C [15] was 104%. It also gave a viability, T/C [16] of 108%, a viability, T/C [17] of 111% and a viability, T/C [18] of 92.9%. For the same molecule, the viability, T/C [19] was 91.3%, the viability, T/C [20] was 98.4% and the viability, T/C [21] was 108%. For the same molecule, the viability, T/C [22] was 106%, the viability, T/C [23] was 109% and the viability, T/C [24] was 87.8%. For the same molecule, the viability, T/C [25] was 100%, the viability, T/C [26] was 103% and the viability, T/C [27] was 109%. It also gave a viability, T/C [28] of 108%, a viability, T/C [29] of 103% and a viability, T/C [30] of 70.7%. For the same molecule, the viability, T/C [31] was 103%, the viability, T/C [32] was 103% and the viability, T/C [33] was 106%. It also gave a viability, T/C [34] of 102%, a viability, T/C [35] of 105% and a viability, T/C [36] of 56.3%.
Work on O=C(c1cc(Cc2n[nH]c(=O)c3ccccc23)ccc1F)N1CCN(C(=O)C2CC2)CC1 + Cc1[nH]c2ccc(F)cc2c1-c1nc2c3cccnc3c3ncccc3c2[nH]1 yielded an IC50 (second compound 0.0316 µM) of 4.59 µM, an IC50 (second compound 0.1 µM) of 4.39 µM and an IC50 (second compound 0.316 µM) of 3.3 µM. The IC50 (second compound 1 µM) was 4.38 µM, the IC50 (second compound 3.16 µM) was 2.99 µM and the IC50 (second compound 10 µM) was 2.79 µM. The viability, T/C [1] was 113%, the viability, T/C [2] was 102% and the viability, T/C [3] was 111%. For the same molecule, the viability, T/C [4] was 101%, the viability, T/C [5] was 68.6% and the viability, T/C [6] was 11.5%. It also gave a viability, T/C [7] of 107%, a viability, T/C [8] of 103% and a viability, T/C [9] of 111%. It also gave a viability, T/C [10] of 106%, a viability, T/C [11] of 64.1% and a viability, T/C [12] of 14.8%. For the same molecule, the viability, T/C [13] was 93%, the viability, T/C [14] was 107% and the viability, T/C [15] was 106%. It also gave a viability, T/C [16] of 108%, a viability, T/C [17] of 51.4% and a viability, T/C [18] of 15%. For the same molecule, the viability, T/C [19] was 95.2%, the viability, T/C [20] was 101% and the viability, T/C [21] was 108%. The viability, T/C [22] was 109%, the viability, T/C [23] was 64.5% and the viability, T/C [24] was 13.1%. For the same molecule, the viability, T/C [25] was 104%, the viability, T/C [26] was 110% and the viability, T/C [27] was 111%. It also gave a viability, T/C [28] of 105%, a viability, T/C [29] of 47.2% and a viability, T/C [30] of 7.55%. It also gave a viability, T/C [31] of 104%, a viability, T/C [32] of 103% and a viability, T/C [33] of 112%. For the same molecule, the viability, T/C [34] was 99.8%, the viability, T/C [35] was 44% and the viability, T/C [36] was 4.64%.

— PubChem BioAssay AID2060488 (Molecular Pharmacology Branch, DTP, NCI, 2025)
